Laboratory results as given in patent publication US11371016B2, “Method for producing retinal tissue” (SUMITOMO PHARMA CO., LTD., priority 2016, dated 2022).

Tests used:
[1] = system: human iPS cells (1231A3 strain); experiment: Differentiation of feeder-free cultured human iPS cells into retinal tissue; immunostaining of cell aggregates for Rx and Chx10; format: cell-based; settings: day 17; for proportion of Rx positive cells in the total cells: BMP4 1.5 nM from day 3
[2] = system: human iPS cells (1231A3 strain); experiment: as above; format: cell-based; settings: IWR-1e 3 μM in step 2 and step 3, BMP4 1.5 nM from day 3
Description: Human iPS cells (1231A3 strain, obtained from Kyoto University) were cultured under feeder free according to the method described in “Scientific Reports, 4, 3594 (2014)”. As a feeder-free medium, StemFit (registered trade mark) medium (AK03N, manufactured by Ajinomoto Co., Inc.) was used, and as a feeder-free scaffold, Laminin 511-E8 (manufactured by Nippi, Inc.) was used. As a specific maintenance culture operation, subconfluent human iPS cells (1231A3 strain) were first washed with PBS, and dispersed into single cells by using TrypLE Select (manufactured by Life Technologies). Thereafter, the aforementioned human iPS cells dispersed into single cells were seeded in a plastic culture dish coated with Laminin 511-E8, and cultured under feeder-free conditions in StemFit (registered trade mark) medium in the presence of Y27632 (ROCK inhibiting substance, 10 μM). When a 6-well plate (manufactured by Iwaki, for cell culture, culture area 9.4 cm^2) was used as the aforementioned plastic culture dish, the number of plated cells for the aforementioned human iPS cells dispersed into single cells was adjusted to 1.0×10^4. One day after seeding, the entire amount of the medium was changed with StemFit (registered trade mark) medium free of Y27632. Thereafter, once in 1-2 days, the entire amount of the medium was changed with StemFit (registered trade mark) medium free of Y27632. Thereafter, the cells were cultured until 6 days after seeding when they became subconfluent (60% of culture area is covered with cells). As a specific example of step 1 (Precondition) of the present production method, the following operation was performed. Subconfluent human iPS cells (1231A3 strain) were first washed with PBS, and dispersed into single cells by using TrypLE Select (manufactured by Life Technologies). Thereafter, the aforementioned human iPS cells dispersed into single cells were seeded in a plastic culture dish (manufactured by Iwaki) coated with Laminin 511-E8, and cultured under feeder-free conditions in StemFit (registered trade mark) medium in the presence of Y27632 (ROCK inhibiting substance, 10 μM). When a 6-well plate (manufactured by Iwaki, culture area 9.4 cm^2) was used as the aforementioned plastic culture dish, the number of plated cells for the aforementioned human iPS cells dispersed into single cells was adjusted to 1.0×10^4. When a 60 mm dish (manufactured by Iwaki, for cell culture, culture area 21 cm^2) was used as the aforementioned plastic culture dish, the number of plated cells for the aforementioned human iPS cells dispersed into single cells was adjusted to 2.0×10^4. One day after seeding, the entire amount of the medium was changed with StemFit (registered trade mark) medium free of Y27632. […]

[3] = Precondition SB431542 5 μM + SAG 300 nM in step 1, day 17

For `O=C(Nc1cccc2cccnc12)c1ccc(N2C(=O)[C@@H]3[C@H](C2=O)[C@@H]2C=C[C@H]3C2)cc1` [IWR-1e, 4-[(3aR,4S,7R,7aS)-1,3,3a,4,7,7a-hexahydro-1,3-dioxo-4,7-methano-2H-isoindol-2-yl]-N-8-quinolinyl-benzamide], which “proportion of Rx positive cells in the total cells” value (“proportion of Rx positive cells” for short) ([1]; Example 2 Condition 3: Precondition SAG 300 nM in step 1, IWR-1e 3 μM in step 2 and step 3) is on record?
Its value is “about 90%”.

And the “Chx10 status of Rx positive cells (serial sections)” value ([1]; Example 2 Condition 3: Precondition SAG 300 nM, IWR-1e 3 μM in step 2 and step 3)?
Its value is “Chx10 co-positive”.

What about the “proportion of Rx positive cells” value ([1]; Example 2 Condition 5: Precondition SAG 300 nM in step 1, SAG 30 nM in step 2, IWR-1e 3 μM in step 2 and step 3) of the same compound?
Its value is “about 90%”.

And the “Chx10 status of Rx positive cells (serial sections)” value ([1]; Example 2 Condition 5: Precondition SAG 300 nM, SAG 30 nM in step 2, IWR-1e 3 μM in step 2 and step 3)?
The value was “Chx10 co-positive”.

And the “Chx10 positive (strong positive) cells” value [2, 3]?
The value was “about 60%”.

What about the “proportion of Rx positive cells” value [2, 3] of the same compound?
Its value is “about 60%”.

And the “Chx10 positiveness in the cell aggregate” value ([2]; no Precondition in step 1, day 17)?
Its value is “weak Chx10 positiveness”.

What about the “proportion of Rx positive cells” value ([2]; no Precondition in step 1, day 17 of suspension culture) of the same compound?
The value was “about 40%”.

Which results are given for `CNC1CCC(N(Cc2cccc(-c3ccncc3)c2)C(=O)c2sc3ccccc3c2Cl)CC1` (stereo not shown) [SAG]?
proportion of Rx positive cells in the total cells ([1]; Example 2 Condition 2: Precondition SAG 300 nM one day in step 1, no Wnt inhibiting substance, no SAG in step 2): about 40%; Chx10 status of Rx positive cells (serial sections) ([1]; Example 2 Condition 2: Precondition SAG 300 nM, no IWR-1e, no SAG in step 2): Chx10 co-positive; proportion of Rx positive cells in the total cells ([1]; Example 2 Condition 4: Precondition SAG 300 nM in step 1, SAG 30 nM in step 2, no IWR-1e): about 60%; Chx10 status of Rx positive cells (serial sections) ([1]; Example 2 Condition 4: Precondition SAG 300 nM, SAG 30 nM in step 2, no IWR-1e): Chx10 co-positive; neural tissue formation ([1]; Example 2 Conditions 2-5: Precondition treatment with SAG 300 nM in step 1, versus Condition 1 without Precondition (not formed)): a neural tissue was formed
